# Experimental data reported in US20240415914A1, “Water Dispersible Cannabinoid Compositions” (priority 2021, published 2024).
# Read-outs that look alike come from different tables or passages of the source.
# How the values were obtained:
# [1] = type: physicochemical; conditions: stored at room temperature (21-25° C.)
# Protocol: At each time period, 0.05 g of powder was dissolved in 10 ml-15 of ethanol, diluted to fall within the analytical range, and injected into the LCMSMS for analysis.
# [2] = Stability of cannabinoid and Vitamin E components of Beverage 2 (AB Red) stored at 8° C. and 21-25° C., LCMSMS over 570 days
# Protocol: The LCMSMS was calibrated for 0-50 ng/ml cannabinoids with the same resin material used in the preparation of the concentrates. At each time period, 100 μml of beverage was diluted with 10 ml of methanol and injected into the LCMSMS for analysis.
structure (smiles),measurement,setting,value
Cc1c(C)c2c(c(C)c1OC(=O)CCC(=O)O)CC[C@@](C)(CCC[C@H](C)CCC[C@H](C)CCCC(C)C)O2 [α-Tocopheryl succinate],Stability in Powder Concentrate (content by LCMSMS),[1]; day 0,1.82 mg/g powder
same,Stability in Powder Concentrate (content by LCMSMS),[1]; day 1,1.81 mg/g powder
same,Stability in Powder Concentrate (content by LCMSMS),[1]; day 2,1.81 mg/g powder
same,Stability in Powder Concentrate (content by LCMSMS),[1]; day 3,1.81 mg/g powder
same,Stability in Powder Concentrate (content by LCMSMS),[1]; day 5,1.83 mg/g powder
same,Stability in Powder Concentrate (content by LCMSMS),[1]; day 8,1.90 mg/g powder
same,Stability in Powder Concentrate (content by LCMSMS),[1]; day 9,1.89 mg/g powder
same,Stability in Powder Concentrate (content by LCMSMS),[1]; day 10,1.87 mg/g powder
same,Stability in Powder Concentrate (content by LCMSMS),[1]; day 11,1.89 mg/g powder
same,Stability in Powder Concentrate (content by LCMSMS),[1]; day 12,1.87 mg/g powder
same,Stability in Powder Concentrate (content by LCMSMS),[1]; day 15,1.87 mg/g powder
same,Stability in Powder Concentrate (content by LCMSMS),[1]; day 16,1.83 mg/g powder
same,Stability in Powder Concentrate (content by LCMSMS),[1]; day 17,1.88 mg/g powder
same,Stability in Powder Concentrate (content by LCMSMS),[1]; day 18,1.77 mg/g powder
same,Stability in Powder Concentrate (content by LCMSMS),[1]; day 19,1.85 mg/g powder
same,Stability in Powder Concentrate (content by LCMSMS),[1]; day 22,1.78 mg/g powder
same,Stability in Powder Concentrate (content by LCMSMS),[1]; day 23,1.80 mg/g powder
same,Stability in Powder Concentrate (content by LCMSMS),[1]; day 24,1.90 mg/g powder
same,Stability in Powder Concentrate (content by LCMSMS),[1]; day 25,1.90 mg/g powder
same,Stability in Powder Concentrate (content by LCMSMS),[1]; day 26,1.76 mg/g powder
same,Stability in Powder Concentrate (content by LCMSMS),[1]; day 29,1.87 mg/g powder
same,Stability in Powder Concentrate (content by LCMSMS),[1]; day 30,1.80 mg/g powder
same,Stability in Powder Concentrate (content by LCMSMS),[1]; day 60,1.77 mg/g powder
same,Stability in Powder Concentrate (content by LCMSMS),[1]; day 90,1.83 mg/g powder
same,Stability in Powder Concentrate (content by LCMSMS),[1]; day 120,1.83 mg/g powder
same,Stability in Powder Concentrate (content by LCMSMS),[1]; day 150,1.89 mg/g powder
same,Stability in Powder Concentrate (content by LCMSMS),[1]; day 180,1.77 mg/g powder
same,Stability in Powder Concentrate (content by LCMSMS),[1]; day 210,1.80 mg/g powder
same,Stability in Powder Concentrate (content by LCMSMS),[1]; day 240,1.84 mg/g powder
same,Stability in Powder Concentrate (content by LCMSMS),[1]; day 270,1.87 mg/g powder
same,Stability in Powder Concentrate (content by LCMSMS),[1]; day 300,1.84 mg/g powder
same,Stability in Powder Concentrate (content by LCMSMS),[1]; day 330,1.83 mg/g powder
same,Stability in Powder Concentrate (content by LCMSMS),[1]; day 360,1.79 mg/g powder
same,Stability in Powder Concentrate (content by LCMSMS),[1]; day 390,1.87 mg/g powder
same,Stability in Powder Concentrate (content by LCMSMS),[1]; day 420,1.82 mg/g powder
same,Stability in Powder Concentrate (content by LCMSMS),[1]; day 450,1.80 mg/g powder
same,Stability in Powder Concentrate (content by LCMSMS),[1]; day 480,1.76 mg/g powder
same,Stability in Powder Concentrate (content by LCMSMS),[1]; day 510,1.76 mg/g powder
same,Stability in Powder Concentrate (content by LCMSMS),[1]; day 540,1.80 mg/g powder
same,Stability in Powder Concentrate (content by LCMSMS),[1]; day 570,1.77 mg/g powder
same,Stability of Vitamin Es in AB Red,"[2]; 8° C., 0 days",12.5 µg/mL
same,Stability of Vitamin Es in AB Red,"[2]; 8° C., 1 days",11.7 µg/mL
same,Stability of Vitamin Es in AB Red,"[2]; 8° C., 2 days",11.7 µg/mL
same,Stability of Vitamin Es in AB Red,"[2]; 8° C., 3 days",11.7 µg/mL
same,Stability of Vitamin Es in AB Red,"[2]; 8° C., 5 days",11.5 µg/mL
same,Stability of Vitamin Es in AB Red,"[2]; 8° C., 8 days",12.6 µg/mL
same,Stability of Vitamin Es in AB Red,"[2]; 8° C., 9 days",11.8 µg/mL
same,Stability of Vitamin Es in AB Red,"[2]; 8° C., 10 days",12.6 µg/mL
same,Stability of Vitamin Es in AB Red,"[2]; 8° C., 11 days",12.1 µg/mL
same,Stability of Vitamin Es in AB Red,"[2]; 8° C., 12 days",12.7 µg/mL
same,Stability of Vitamin Es in AB Red,"[2]; 8° C., 15 days",12.5 µg/mL
same,Stability of Vitamin Es in AB Red,"[2]; 8° C., 16 days",11.5 µg/mL
same,Stability of Vitamin Es in AB Red,"[2]; 8° C., 17 days",12.4 µg/mL
same,Stability of Vitamin Es in AB Red,"[2]; 8° C., 18 days",11.9 µg/mL
same,Stability of Vitamin Es in AB Red,"[2]; 8° C., 19 days",11.7 µg/mL
same,Stability of Vitamin Es in AB Red,"[2]; 8° C., 22 days",11.9 µg/mL
same,Stability of Vitamin Es in AB Red,"[2]; 8° C., 23 days",12.0 µg/mL
same,Stability of Vitamin Es in AB Red,"[2]; 8° C., 24 days",12.2 µg/mL
same,Stability of Vitamin Es in AB Red,"[2]; 8° C., 25 days",12.0 µg/mL
same,Stability of Vitamin Es in AB Red,"[2]; 8° C., 26 days",12.5 µg/mL
same,Stability of Vitamin Es in AB Red,"[2]; 8° C., 29 days",11.6 µg/mL
same,Stability of Vitamin Es in AB Red,"[2]; 8° C., 30 days",12.4 µg/mL
same,Stability of Vitamin Es in AB Red,"[2]; 8° C., 60 days",11.4 µg/mL
same,Stability of Vitamin Es in AB Red,"[2]; 8° C., 90 days",11.5 µg/mL
same,Stability of Vitamin Es in AB Red,"[2]; 8° C., 120 days",12.2 µg/mL
same,Stability of Vitamin Es in AB Red,"[2]; 8° C., 150 days",11.5 µg/mL
same,Stability of Vitamin Es in AB Red,"[2]; 8° C., 180 days",11.4 µg/mL
same,Stability of Vitamin Es in AB Red,"[2]; 8° C., 210 days",11.4 µg/mL
same,Stability of Vitamin Es in AB Red,"[2]; 8° C., 240 days",11.6 µg/mL
same,Stability of Vitamin Es in AB Red,"[2]; 8° C., 270 days",11.5 µg/mL
same,Stability of Vitamin Es in AB Red,"[2]; 8° C., 300 days",11.2 µg/mL
same,Stability of Vitamin Es in AB Red,"[2]; 8° C., 330 days",11.7 µg/mL
same,Stability of Vitamin Es in AB Red,"[2]; 8° C., 390 days",11.2 µg/mL
same,Stability of Vitamin Es in AB Red,"[2]; 8° C., 420 days",11.0 µg/mL
same,Stability of Vitamin Es in AB Red,"[2]; 8° C., 450 days",11.2 µg/mL
same,Stability of Vitamin Es in AB Red,"[2]; 8° C., 480 days",10.9 µg/mL
same,Stability of Vitamin Es in AB Red,"[2]; 8° C., 510 days",10.8 µg/mL
same,Stability of Vitamin Es in AB Red,"[2]; 8° C., 540 days",10.9 µg/mL
same,Stability of Vitamin Es in AB Red,"[2]; 8° C., 570 days",10.6 µg/mL
same,Stability of Vitamin Es in AB Red,"[2]; 21-25° C., 0 days",12.5 µg/mL
same,Stability of Vitamin Es in AB Red,"[2]; 21-25° C., 1 days",12.5 µg/mL
same,Stability of Vitamin Es in AB Red,"[2]; 21-25° C., 2 days",12.0 µg/mL
same,Stability of Vitamin Es in AB Red,"[2]; 21-25° C., 3 days",11.9 µg/mL
same,Stability of Vitamin Es in AB Red,"[2]; 21-25° C., 5 days",11.9 µg/mL
same,Stability of Vitamin Es in AB Red,"[2]; 21-25° C., 8 days",12.0 µg/mL
same,Stability of Vitamin Es in AB Red,"[2]; 21-25° C., 9 days",11.7 µg/mL
same,Stability of Vitamin Es in AB Red,"[2]; 21-25° C., 10 days",12.0 µg/mL
same,Stability of Vitamin Es in AB Red,"[2]; 21-25° C., 11 days",12.0 µg/mL
same,Stability of Vitamin Es in AB Red,"[2]; 21-25° C., 12 days",12.4 µg/mL
same,Stability of Vitamin Es in AB Red,"[2]; 21-25° C., 15 days",11.6 µg/mL
same,Stability of Vitamin Es in AB Red,"[2]; 21-25° C., 16 days",11.6 µg/mL
same,Stability of Vitamin Es in AB Red,"[2]; 21-25° C., 17 days",12.6 µg/mL
same,Stability of Vitamin Es in AB Red,"[2]; 21-25° C., 18 days",12.1 µg/mL
same,Stability of Vitamin Es in AB Red,"[2]; 21-25° C., 19 days",11.9 µg/mL
same,Stability of Vitamin Es in AB Red,"[2]; 21-25° C., 22 days",11.6 µg/mL
same,Stability of Vitamin Es in AB Red,"[2]; 21-25° C., 23 days",12.7 µg/mL
same,Stability of Vitamin Es in AB Red,"[2]; 21-25° C., 24 days",12.4 µg/mL
same,Stability of Vitamin Es in AB Red,"[2]; 21-25° C., 25 days",11.9 µg/mL
same,Stability of Vitamin Es in AB Red,"[2]; 21-25° C., 26 days",12.1 µg/mL
same,Stability of Vitamin Es in AB Red,"[2]; 21-25° C., 29 days",12.4 µg/mL
same,Stability of Vitamin Es in AB Red,"[2]; 21-25° C., 30 days",12.1 µg/mL
same,Stability of Vitamin Es in AB Red,"[2]; 21-25° C., 60 days",11.7 µg/mL
same,Stability of Vitamin Es in AB Red,"[2]; 21-25° C., 90 days",11.6 µg/mL
same,Stability of Vitamin Es in AB Red,"[2]; 21-25° C., 120 days",11.5 µg/mL
same,Stability of Vitamin Es in AB Red,"[2]; 21-25° C., 150 days",11.4 µg/mL
same,Stability of Vitamin Es in AB Red,"[2]; 21-25° C., 180 days",12.3 µg/mL
same,Stability of Vitamin Es in AB Red,"[2]; 21-25° C., 210 days",11.6 µg/mL
same,Stability of Vitamin Es in AB Red,"[2]; 21-25° C., 240 days",11.6 µg/mL
same,Stability of Vitamin Es in AB Red,"[2]; 21-25° C., 270 days",11.0 µg/mL
same,Stability of Vitamin Es in AB Red,"[2]; 21-25° C., 300 days",11.4 µg/mL
same,Stability of Vitamin Es in AB Red,"[2]; 21-25° C., 330 days",11.4 µg/mL
same,Stability of Vitamin Es in AB Red,"[2]; 21-25° C., 390 days",10.8 µg/mL
same,Stability of Vitamin Es in AB Red,"[2]; 21-25° C., 420 days",11.0 µg/mL
same,Stability of Vitamin Es in AB Red,"[2]; 21-25° C., 450 days",11.2 µg/mL
same,Stability of Vitamin Es in AB Red,"[2]; 21-25° C., 480 days",10.4 µg/mL
same,Stability of Vitamin Es in AB Red,"[2]; 21-25° C., 510 days",10.6 µg/mL
same,Stability of Vitamin Es in AB Red,"[2]; 21-25° C., 540 days",10.3 µg/mL
same,Stability of Vitamin Es in AB Red,"[2]; 21-25° C., 570 days",10.6 µg/mL
